The values that follow come from US11725010B2, “Polyheterocyclic compounds as METTL3 inhibitors” (Storm Therapeutics Limited, priority 2019, dated 2023).

Assay [1] has as its target T1, METTL3/14 (Homo sapiens (Human), UniProt Q86U44).
Assay [2] deals with Caov-3 cells. In words: Caov3 CTG proliferation assay. The settings on record: Homo sapiens, Caov-3; treated for 120 hours, CellTiter-Glo luminescence; read-out: Caov3 cells IC50. Type of assay: cell-based. On the procedure: CTG Assay (Caov3 Cell Line)
Upon treatment, Coav-3 cells were incubated for 10 min at RT with the CellTiter-Glo reagent (G7571, Promega). Measurement of the luminescence signal was performed on a microplate reader (Ensight, PerkinElmer).
Caov3 CTG Assay—Proliferation Assay

The test system of assay [3] is KASUMI-1 cells. In words: Kasumi cell assay (CellTiter-Glo cell growth). The settings on record: Homo sapiens, Kasumi 1; treated for 120 hours, CellTiter-Glo luminescence; read-out: KASUMI1 cells IC50. Type of assay: cell-based. As to the method:
Upon treatment, Kasumil cells were incubated for 10 min at RT with the CellTiter-Glo reagent (G7571, Promega). Measurement of the luminescence signal was performed on a microplate reader (Ensight, PerkinElmer).

The target in assay [4] is T1, METTL3/14. In words: biochemical.

The structures appear in SMILES notation. Like-named read-outs stand apart in the source and are kept apart here. Where only a bound is given, the exact number is not on record here.

T1 sequence (Q86U44 whole entry): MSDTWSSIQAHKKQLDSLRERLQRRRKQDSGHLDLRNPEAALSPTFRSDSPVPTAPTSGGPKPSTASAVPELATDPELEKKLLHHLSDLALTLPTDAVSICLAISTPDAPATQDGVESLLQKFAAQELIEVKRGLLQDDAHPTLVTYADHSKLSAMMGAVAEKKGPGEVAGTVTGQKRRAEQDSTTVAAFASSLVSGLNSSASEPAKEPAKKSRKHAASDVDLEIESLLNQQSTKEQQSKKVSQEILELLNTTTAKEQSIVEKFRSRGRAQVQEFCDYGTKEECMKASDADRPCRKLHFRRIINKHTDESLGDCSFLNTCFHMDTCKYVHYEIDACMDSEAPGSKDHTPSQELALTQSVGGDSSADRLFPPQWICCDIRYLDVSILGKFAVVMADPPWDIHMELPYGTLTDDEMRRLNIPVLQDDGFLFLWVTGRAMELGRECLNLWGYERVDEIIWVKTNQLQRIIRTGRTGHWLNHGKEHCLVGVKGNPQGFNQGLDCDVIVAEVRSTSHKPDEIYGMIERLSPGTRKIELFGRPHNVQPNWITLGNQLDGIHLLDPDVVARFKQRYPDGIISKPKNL
T1 sequence (Q9HCE5 whole entry partner): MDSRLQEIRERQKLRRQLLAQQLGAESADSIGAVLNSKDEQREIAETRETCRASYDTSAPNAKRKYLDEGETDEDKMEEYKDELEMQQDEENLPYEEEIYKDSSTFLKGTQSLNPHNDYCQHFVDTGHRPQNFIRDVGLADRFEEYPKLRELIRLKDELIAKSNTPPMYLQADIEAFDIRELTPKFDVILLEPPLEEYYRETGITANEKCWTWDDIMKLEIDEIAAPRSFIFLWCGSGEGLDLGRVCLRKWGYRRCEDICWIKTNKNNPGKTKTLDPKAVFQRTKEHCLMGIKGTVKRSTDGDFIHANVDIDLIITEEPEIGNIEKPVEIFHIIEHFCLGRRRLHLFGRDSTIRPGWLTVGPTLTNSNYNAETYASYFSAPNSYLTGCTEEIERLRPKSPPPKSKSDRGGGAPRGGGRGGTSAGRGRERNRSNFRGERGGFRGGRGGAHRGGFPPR

Take `O=C(NCc1cnc2cc(CNCC34CC(C3)C4)[nH]c2c1)c1cc(=O)n2ccccc2n1` [Example 126, N-[(2-{[({bicyclo[1.1.1]pentan-1-yl}methyl)amino]methyl}-1H-pyrrolo[3,2-b]pyridin-6-yl)methyl]-4-oxo-4H-pyrido[1,2-a]pyrimidine-2-carboxamide]: the half-maximal inhibitory concentration (IC50) in assay [1] was 0.0061 µM; in assay [2], 0.523 µM; in assay [3] it was 3.07 µM.

Take `c1cc(-n2cc(Cc3ccc4cc(CNCC5CCC5)[nH]c4c3)nn2)c2cncn2c1` [Example 144, (cyclobutyl-methyl)({6-[(1-{imidazo[1,5-a]pyridin-8-yl}-1H-1,2,3-triazol-4-yl)methyl]-1H-indol-2-yl}methyl) amine]: in assay [4], the concentration for half-maximal inhibition (IC50) amounted to 0.0193 µM.

As for `c1cc(-c2cn(Cc3cc4[nH]c(CN5CCC6(CCC6)C5)cc4cn3)nn2)c2cncn2c1` [Example 155, 2-((6-azaspiro[3.4]octan-6-yl)methyl)-6-((4-(imidazo[1,5-a]pyridin-8-yl)-1H-1,2,3-triazol-1-yl)methyl)-1H-pyrrolo[3,2-c]pyridine], the IC50 was less than 0.0061 µM in assay [1], 0.473 µM in assay [2] and 0.547 µM in assay [3].
